According to patent US9012493B2, “1-heterodiene derivative and pest control agent” (Nippon Soda Co., Ltd., priority 2009, dated 2015):

Columns and labels:
Type in all cases: in vivo
[1] = system: Rice Armyworm (Mythimna Separata); experiment: Efficacy test against rice armyworm, corn leaf dip; settings: 125 ppm, emulsifiable concentrate diluted with water, corn leaves immersed, second instar larvae, after 5 days, 25° C.
Experimental: (§1) Test Examples of the pest control agent thus obtained according to the present invention are shown below. In respective Test Examples, the insecticidal rate (%) was determined by the following calculation equation. Insecticidal rate (%)=(number of dead pests/number of released pests)×100
The emulsifiable concentrate obtained according to Formulation of Formulation Example 2 was diluted with water so as to control the concentration of the compound to 125 ppm. Leaves of corn were immersed in this diluted solution for 30 seconds and then air-dried. The leaves were put in a petri dish on which a filter paper is laid, and then five second instar larvae of rice armyworm were inoculated. After covering the petri dish with a glass lid, the petri dish was placed in a temperature-controlled room at a temperature of 25° C. and a humidity of 65%. After 5 days, life and death were examined and the insecticidal rate was determined. The test was repeated twice.

[2] = system: Cotton Aphid (Aphis Gossypii); experiment: Efficacy test against cotton aphid, spray on cucumber plant; settings: 125 ppm, emulsifiable concentrate diluted with water, sprayed over cucumber plant with nymphs, after 5 days, 25° C.
Experimental: as §1
The emulsifiable concentrate obtained according to Formulation of Formulation Example 2 was diluted with water so as to control the concentration of the compound to 125 ppm. Adults of cotton aphids were inoculated to a cucumber plant (approximately 10 days after sprouting) sown in a 3 sun/size pot (9 cm). After 1 day, adult aphids were removed and the diluted solution was sprayed over the cucumber plant on which delivered nymphs are parasitic. The pot was placed in a temperature-controlled room at a temperature of 25° C. and a humidity of 65%. After 5 days, life and death were examined and the insecticidal rate was determined. The test was repeated twice.

[3] = system: Sweetpotato Whitefly (Bemisia Tabaci); experiment: Efficacy test against sweetpotato whitefly, sprayed tomato leaf; settings: 125 ppm, emulsifiable concentrate diluted with water, adults (type B), after 2 days, 25° C.
Experimental: as §1
The emulsifiable concentrate obtained according to Formulation of Formulation Example 2 was diluted with water so as to control the concentration of the compound to 125 ppm. The diluted solution was sprayed over a tomato leaf obtained by cutting and then air-dried. Using absorbent cotton, the leaf was fixed to a flask so that a front surface of the leaf faces upward. Seven pairs of adults of sweetpotato whitefly (type B) were inoculated in this container, and the container was placed in a temperature-controlled room at a temperature of 25° C. and a humidity of 65%. After 2 days, life and death were examined and the insecticidal rate was determined. The test was repeated twice.

[4] = system: Twospotted Spider Mite (Tetranychus Urticae Koch); experiment: Efficacy test against twospotted spider mite, spray on kidney bean plant; settings: 125 ppm, wettable powder diluted with water, sprayed, female adults with resistance to an organophosphorus agent on kidney bean, after 3 days
Experimental: The wettable powder obtained according to Formulation of Formulation Example 1 was diluted with water so as to control the concentration of the compound to 125 ppm. Seventeen female adults of twospotted spider mite with resistance to an organophosphorus agent were inoculated on a first true leaf of a kidney bean plant (approximately 7 to 10 days after sprouting) sown in a 3 sun/size pot (9 cm). The diluted solution was sprayed. The pot was placed in a temperature-controlled room at a temperature of 25° C. and a humidity of 65%. After 3 days, the adulticidal rate was examined. The test was repeated twice.

C=C1SC(=Nc2ccc(C)cc2)C(=CSc2cccc(F)c2)CC1(C)C (mixture of isomers) [Compound 2-84]
100%: insecticidal rate [1] | insecticidal rate [2] | insecticidal rate [3] | adulticidal rate [4]

C=C1SC(=Nc2ccc(C)cc2)C(=CSc2ccccc2F)CC1(C)C (mixture of isomers) [Compound 2-85]
100%: insecticidal rate [1] | insecticidal rate [2] | insecticidal rate [3] | adulticidal rate [4]

C=C1SC(=Nc2ccc(C)cc2)C(=CSc2ccc(C)cc2)CC1(C)C (mixture of isomers) [Compound 2-86]
100%: insecticidal rate [1] | insecticidal rate [2] | insecticidal rate [3] | adulticidal rate [4]

C=C1SC(=Nc2ccc(C)cc2)C(=CSc2ccc(Cl)cc2)CC1(C)C (mixture of isomers) [Compound 2-87]
100%: insecticidal rate [1] | insecticidal rate [2] | insecticidal rate [3] | adulticidal rate [4]

C=C1SC(=Nc2ccc(C)cc2)C(=CSc2cccc3ccccc23)CC1(C)C (mixture of isomers) [Compound 2-89]
100%: insecticidal rate [1] | insecticidal rate [2] | insecticidal rate [3] | adulticidal rate [4]

CC(C)=C1CCC(=CSc2ccc(F)cc2)C(=Nc2ccc(C)cc2)S1 (mixture of isomers) [Compound 6-2]
100%: insecticidal rate [1] | insecticidal rate [3] | adulticidal rate [4]

C=C1SC(=Nc2ccc(C)cc2)C(=CSc2cccnc2)CC1(C)C (mixture of isomers) [Compound 6-6]
100%: insecticidal rate [1] | insecticidal rate [3] | adulticidal rate [4]

C=C1SC(=Nc2ccc(C)cc2)C(=CSc2ccc(F)cc2F)CC1(C)C (mixture of isomers) [Compound 6-7]
100%: insecticidal rate [1] | insecticidal rate [3] | adulticidal rate [4]

C=C1SC(=Nc2ccccc2OC)C(=CSc2ccccc2)CC1(C)C [Compound 2-27]
100%: insecticidal rate [1] | insecticidal rate [3] | adulticidal rate [4]

C=C1SC(=Nc2cc(OC)cc(OC)c2)C(=CSc2ccccc2)CC1(C)C [Compound 2-38]
100%: insecticidal rate [3] | adulticidal rate [4]

C=C1SC(=Nc2ccc(OC)cc2)C(=CSc2ccccn2)CC1(C)C [Compound 2-50]
100%: insecticidal rate [2] | insecticidal rate [3] | adulticidal rate [4]

C=C1SC(=Nc2ccc(OC)cc2)C(=CSc2cccs2)CC1(C)C [Compound 2-51]
100%: insecticidal rate [2] | adulticidal rate [4]

C=C1SC(=Nc2ccc(C)cc2OC)C(=CSc2ccccc2)CC1(C)C [Compound 2-59]
100%: insecticidal rate [1] | insecticidal rate [3] | adulticidal rate [4]

C=C1SC(=Nc2c(C)cc(C)cc2C)C(=CSc2ccccc2)CC1(C)C [Compound 2-63]
100%: insecticidal rate [1] | insecticidal rate [2] | insecticidal rate [3]

C=C1SC(=Nc2c(F)cc(OC)cc2F)C(=CSc2ccccc2)CC1(C)C [Compound 2-65]
100%: insecticidal rate [1] | insecticidal rate [2] | insecticidal rate [3]

C=C1SC(=Nc2c(C)cc(C)cc2C)C(=CSc2cccs2)CC1(C)C [Compound 2-66]
100%: insecticidal rate [1] | insecticidal rate [2] | insecticidal rate [3]

C=C1SC(=Nc2c(C)cc(OC)cc2C)C(=CSc2ccccc2)CC1(C)C [Compound 2-67]
100%: insecticidal rate [1] | insecticidal rate [2] | insecticidal rate [3]

C=C1SC(=Nc2ccc(C)cc2)C(=CSc2nccs2)CC1(C)C [Compound 2-73]
100%: insecticidal rate [1] | insecticidal rate [2] | adulticidal rate [4]

C=C1SC(=Nc2ccc(C)cc2)C(=CSc2cccc(Cl)n2)CC1(C)C [Compound 2-91]
100%: insecticidal rate [1] | insecticidal rate [2] | insecticidal rate [3]

C=C1SC(=Nc2ccc(C)cc2)C(=CSc2ccncc2)CC1(C)C [Compound 2-92]
100%: insecticidal rate [1] | insecticidal rate [3] | adulticidal rate [4]

C=C1SC(=Nc2ccc(C)cc2)C(=CSc2ccoc2C)CC1(C)C [Compound 2-93]
100%: insecticidal rate [1] | insecticidal rate [2] | insecticidal rate [3]

C=C1SC(=Nc2ccc(C)cc2)C(=CSc2ccc(N(C)C)cc2)CC1(C)C [Compound 2-97]
100%: insecticidal rate [1] | insecticidal rate [2] | insecticidal rate [3]

C=C1SC(=Nc2ccc(C)cc2)C(=CSc2nccc(C(F)(F)F)n2)CC1(C)C [Compound 2-98]
100%: insecticidal rate [1] | insecticidal rate [2] | insecticidal rate [3]

C=C1SC(=Nc2ccc(C)cc2)C(=CSc2cccc(Br)c2)CC1(C)C [Compound 2-101]
100%: insecticidal rate [1] | insecticidal rate [3] | adulticidal rate [4]

C=C1SC(=Nc2ccc(C)cc2)C(=CSc2ccccc2Br)CC1(C)C [Compound 2-102]
100%: insecticidal rate [1] | insecticidal rate [3] | adulticidal rate [4]

C=C1SC(=Nc2ccc(C)cc2)C(=CSc2sccc2C)CC1(C)C [Compound 2-104]
100%: insecticidal rate [1] | insecticidal rate [3] | adulticidal rate [4]

C=C1SC(=Nc2ccc(C)cc2)C(=CSc2cccc(C(C)=O)c2)CC1(C)C [Compound 2-105]
100%: insecticidal rate [1] | adulticidal rate [4]

C=C1SC(=Nc2ccc(C)cc2)C(=CSc2cccc(C#N)c2)CC1(C)C [Compound 2-106]
100%: insecticidal rate [1] | insecticidal rate [3] | adulticidal rate [4]

C=C1SC(=Nc2ccc(C)cc2)C(=CSc2ccccc2C)CC1(C)C [Compound 2-111]
100%: insecticidal rate [1] | adulticidal rate [4]

C=C1SC(=Nc2ccc(C)cc2)C(=CSCc2ccccc2)CC1(C)C [Compound 2-112]
100%: insecticidal rate [1] | insecticidal rate [2] | insecticidal rate [3]

C=C1SC(=Nc2ccc(C)cc2)C(=CSc2ccc3ccccc3n2)CC1(C)C [Compound 2-113]
100%: insecticidal rate [1] | adulticidal rate [4]

C=C1SC(=Nc2ccc(C)cc2)C(=CSc2c(F)cccc2F)CC1(C)C [Compound 2-114]
100%: insecticidal rate [1] | insecticidal rate [3] | adulticidal rate [4]

C=C1SC(=Nc2ccc(C)cc2)C(=CSc2c(C)cccc2C)CC1(C)C [Compound 2-119]
100%: insecticidal rate [1] | insecticidal rate [3] | adulticidal rate [4]

C=C1SC(=Nc2ccc(C)cc2)C(=CSc2nccc(C)n2)CC1(C)C [Compound 2-121]
100%: insecticidal rate [1] | insecticidal rate [2] | insecticidal rate [3]

C#CCSC=C1CC(C)(C)C(=C)SC1=Nc1ccc(C)cc1 [Compound 2-122]
100%: insecticidal rate [1] | insecticidal rate [2] | insecticidal rate [3]

C=C1SC(=Nc2ccc(OC)cc2)C(=CSc2nccc(C)n2)CC1(C)C [Compound 2-127]
100%: insecticidal rate [1] | insecticidal rate [2] | insecticidal rate [3]

C=C1SC(=Nc2ccccc2)C(=CSc2nccc(C)n2)CC1(C)C [Compound 2-128]
100%: insecticidal rate [1] | insecticidal rate [2] | insecticidal rate [3]

C=C1SC(=Nc2ccccc2)C(=CSc2cccs2)CC1(C)C [Compound 2-129]
100%: insecticidal rate [1] | insecticidal rate [2] | insecticidal rate [3]

C=C1SC(=Nc2ccc(C)c(C)c2)C(=CSc2nccc(C)n2)CC1(C)C [Compound 2-132]
100%: insecticidal rate [1] | insecticidal rate [2] | insecticidal rate [3]

C=C1SC(=Nc2ccc(C)cc2)C(=CSc2ccc(C(C)C)cc2)CC1(C)C [Compound 2-151]
100%: insecticidal rate [1] | insecticidal rate [3] | adulticidal rate [4]
